Measured values as given in ChEMBL document CHEMBL1126921, “Heterocyclic lactam derivatives as dual angiotensin converting enzyme and neutral endopeptidase 24.11 inhibitors” (J Med Chem, 1993).

Legend:
Rattus norvegicus [1] = experiment: Tested for the inhibition of angiotensin I (AI) pressor response after 2 hours following an oral dose of 10 mg/kg; format: functional
Rattus norvegicus [2] = experiment: Tested for the inhibition of angiotensin I (AI) pressor response after 1 hour following an oral dose of 10 mg/kg; format: functional
Rattus norvegicus [3] = experiment: Tested for the inhibition of angiotensin I (AI) pressor response after 0.5 hour following an oral dose of 10 mg/kg; format: functional
Neprilysin = target: T1, Neprilysin (Rattus norvegicus, UniProt P07861); experiment: Tested in vitro for the inhibition against neutral endopeptidase (NEP) from rat kidney
T1 sequence (P07861 whole entry): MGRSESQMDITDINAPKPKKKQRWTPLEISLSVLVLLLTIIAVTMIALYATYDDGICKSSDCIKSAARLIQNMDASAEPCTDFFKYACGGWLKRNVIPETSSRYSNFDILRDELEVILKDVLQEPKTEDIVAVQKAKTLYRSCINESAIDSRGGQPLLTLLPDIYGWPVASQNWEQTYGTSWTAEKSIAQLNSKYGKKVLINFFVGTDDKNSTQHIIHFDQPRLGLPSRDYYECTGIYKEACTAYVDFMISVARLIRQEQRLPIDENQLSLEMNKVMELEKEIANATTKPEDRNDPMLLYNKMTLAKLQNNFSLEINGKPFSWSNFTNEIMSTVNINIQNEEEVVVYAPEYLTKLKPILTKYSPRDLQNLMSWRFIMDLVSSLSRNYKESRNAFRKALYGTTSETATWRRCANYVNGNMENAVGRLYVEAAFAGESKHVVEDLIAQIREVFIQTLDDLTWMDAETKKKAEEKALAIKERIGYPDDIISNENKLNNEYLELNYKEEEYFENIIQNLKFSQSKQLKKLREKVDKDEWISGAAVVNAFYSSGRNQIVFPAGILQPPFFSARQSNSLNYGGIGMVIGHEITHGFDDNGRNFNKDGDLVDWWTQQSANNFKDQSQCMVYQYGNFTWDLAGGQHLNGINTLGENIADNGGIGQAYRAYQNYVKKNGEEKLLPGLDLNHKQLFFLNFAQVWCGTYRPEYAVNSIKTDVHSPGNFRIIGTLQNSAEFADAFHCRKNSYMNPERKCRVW

[4] = target: T2, Angiotensin-converting enzyme (Oryctolagus cuniculus, UniProt P12822); experiment: Tested in vitro for the inhibition of angiotensin converting enzyme from rabbit lung
T2 sequence (P12822 whole entry): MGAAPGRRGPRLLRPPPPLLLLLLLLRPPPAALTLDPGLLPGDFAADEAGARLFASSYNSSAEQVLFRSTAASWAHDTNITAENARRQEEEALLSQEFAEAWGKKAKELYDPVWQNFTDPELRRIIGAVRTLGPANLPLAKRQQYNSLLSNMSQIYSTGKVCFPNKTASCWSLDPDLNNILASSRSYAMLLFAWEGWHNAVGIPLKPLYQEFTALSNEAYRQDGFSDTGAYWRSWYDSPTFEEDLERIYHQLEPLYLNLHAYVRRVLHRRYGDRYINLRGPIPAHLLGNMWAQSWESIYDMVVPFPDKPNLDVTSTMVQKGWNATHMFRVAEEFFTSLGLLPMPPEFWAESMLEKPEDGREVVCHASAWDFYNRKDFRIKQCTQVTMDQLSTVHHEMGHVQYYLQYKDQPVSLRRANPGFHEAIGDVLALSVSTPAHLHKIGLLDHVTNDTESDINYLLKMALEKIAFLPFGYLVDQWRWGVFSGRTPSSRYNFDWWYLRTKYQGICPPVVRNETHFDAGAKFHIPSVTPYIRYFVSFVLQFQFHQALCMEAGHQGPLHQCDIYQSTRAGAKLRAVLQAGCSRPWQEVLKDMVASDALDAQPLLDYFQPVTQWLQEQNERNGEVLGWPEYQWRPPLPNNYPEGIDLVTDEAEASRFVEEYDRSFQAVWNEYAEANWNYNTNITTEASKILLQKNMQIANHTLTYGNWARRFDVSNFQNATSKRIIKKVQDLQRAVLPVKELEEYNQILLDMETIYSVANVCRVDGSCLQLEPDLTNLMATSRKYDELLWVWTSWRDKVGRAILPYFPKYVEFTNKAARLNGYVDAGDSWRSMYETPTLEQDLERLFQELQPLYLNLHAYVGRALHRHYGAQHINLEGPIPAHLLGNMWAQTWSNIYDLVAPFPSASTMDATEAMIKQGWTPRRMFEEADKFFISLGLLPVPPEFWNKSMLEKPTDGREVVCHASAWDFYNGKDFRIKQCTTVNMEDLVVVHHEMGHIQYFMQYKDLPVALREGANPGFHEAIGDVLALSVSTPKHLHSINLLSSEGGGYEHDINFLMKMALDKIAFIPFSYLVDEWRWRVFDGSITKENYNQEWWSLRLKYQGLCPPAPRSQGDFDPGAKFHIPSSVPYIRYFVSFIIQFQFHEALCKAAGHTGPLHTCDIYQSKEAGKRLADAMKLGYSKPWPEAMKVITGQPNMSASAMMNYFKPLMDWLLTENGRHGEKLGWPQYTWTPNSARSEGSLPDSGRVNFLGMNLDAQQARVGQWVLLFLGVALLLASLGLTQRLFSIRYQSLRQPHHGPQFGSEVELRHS

Rattus norvegicus [5] = experiment: Tested for the plasma concentration based on ex vivo NEP inhibition after 0.5 hour following an oral dose of 10 mg/kg; format: functional, organism-based; set-up: dose 10 mg/kg
Rattus norvegicus [6] = experiment: Tested for the plasma concentration based on ex vivo NEP inhibition after 2 hours following an oral dose of 10 mg/kg; format: functional, organism-based; set-up: dose 10 mg/kg
Rattus norvegicus [7] = experiment: Tested for the plasma concentration based on ex vivo NEP inhibition after 3 hours following an oral dose of 10 mg/kg; format: functional, organism-based; set-up: dose 10 mg/kg
Rattus norvegicus [8] = experiment: Tested for the plasma concentration based on ex vivo NEP inhibition after 1 hour following an oral dose of 10 mg/kg; format: functional, organism-based; set-up: dose 10 mg/kg

Compound	inhibition in vivo at 10 mg/kg (Rattus norvegicus [1])	inhibition in vivo at 10 mg/kg (Rattus norvegicus [2])	inhibition in vivo at 10 mg/kg (Rattus norvegicus [3])	IC50 (Neprilysin)	IC50 [4]	also measured
O=C(O)CN1C(=O)[C@@H](N[C@@H](CCc2ccccc2)C(=O)O)CCc2ccccc21 [BENAZEPRILAT]	77%	86%	100%			
O=C1N[C@H](C(=O)O)CSCCCCCCCC1CS (single isomer, unassigned; isomer A)				190 nM	72 nM	
O=C1N[C@H](C(=O)O)CSCCCCCCCCC1CS (stereo in doubt; 12b)				167 nM	17 nM	
O=C1N[C@H](C(=O)O)CSCCCCCCCC1CS (single isomer, unassigned; isomer B) [listing 1 of 2 here]						Plasma concentration (Rattus norvegicus [5]): 1.81 µM; Plasma concentration (Rattus norvegicus [6]): 0.17 µM; Plasma concentration (Rattus norvegicus [7]): 0.06 µM; Plasma concentration (Rattus norvegicus [8]): 0.32 µM
O=C1N[C@H](C(=O)O)CSCCCCCCCCC1CS (stereo in doubt; 12a)				1300 nM	4600 nM	
O=C1N[C@H](C(=O)O)CSCCCCCCCC1CS (single isomer, unassigned; isomer B) [listing 2 of 2 here]	0%	17%	71%	18 nM	12 nM	
